Laboratory results as given in the NIST ThermoML archive (doi:10.1021/je201053v).
± gives the expanded uncertainty stated by the source.

Conditions: Liquid; for mass density: 293.15 K, 101.33 kPa, Vibrating tube method

Structure (SMILES) | mass density [kg/m3] | other results
Cc1ccccc1C [1,2-dimethylbenzene] | 879.68 ± 0.93 | vapor or sublimation pressure (417.58 K): 101.33 ± 1.9 kPa
Cc1cccc(C)c1 [1,3-dimethylbenzene] | 864.11 ± 0.91 | vapor or sublimation pressure (412.27 K): 101.33 ± 1.4 kPa
Cc1ccc(C)cc1 [1,4-dimethylbenzene] | 861.21 ± 0.91 | vapor or sublimation pressure (411.51 K): 101.33 ± 1.9 kPa
CCCCO [butan-1-ol] | 809.5 ± 0.24 | vapor or sublimation pressure (390.85 K): 101.33 ± 1.3 kPa
CCc1ccccc1 [ethylbenzene] | 866.54 ± 0.58 | vapor or sublimation pressure (409.27 K): 101.33 ± 1.3 kPa
